Values of other authors as cited in patent publication US20260301880A1, “NOSE-TO-BRAIN PHYSIOLOGICALLY BASED PHARMACOKINETIC MODEL” (APTARGROUP INC., priority 2023, published 2026).

Experiments:
[1] = not given; remark: listed apart in the source
[2] = clinical
[3] = healthy volunteers
[4] = humans
[5] = octanol/water
[6] = not given; remark: listed apart in the source
[7] = literature value, porcine nasal mucosa

R - Blood/plasma ratio	reported nasal bioavailability [2] [%]	oral bioavailability [3]	PbAb - Permeability-surface area product between brain blood and brain mass [4] [L/h]	SMILES	fu - fraction unbound in blood plasma [1]	LogP [5]	pKa (acid) ([6]; acid)	pKa (base) ([6]; base)	P - Permeability in the nasal epithelium [7]
1	16	low	–	CNS(=O)(=O)Cc1ccc2[nH]cc(CCN(C)C)c2c1 [sumatriptan]	0.63	–	–	–	–
–	–	–	1.875	CC(=O)Nc1ccc(O)cc1 [paracetamol]	–	–	–	–	–
–	–	–	–	CN1C[C@H](C(=O)N[C@]2(C)O[C@@]3(O)[C@@H]4CCCN4C(=O)[C@H](Cc4ccccc4)N3C2=O)C[C@@H]2c3cccc4[nH]cc(c34)C[C@H]21 [DHE, dihydroergotamine]	0.03	2	9.71	8.39	1.48 × 10^−7
